target: unphosphorylated-BTK kinase domain (UP-BTK), GST-tagged human BTK (389-659aa) (Homo sapiens (Human), UniProt Q06187); experiment: BTK Kinase Lanthascreen Binding Assay; conditions: Lanthascreen binding, 60 minutes incubation; pIC50 = negative log of the IC50 in molar
Description: BTK Kinase Lanthascreen Binding Assay:
A BTK kinase lanthascreen binding assay monitors compound binding to unphosphorylated-BTK kinase domain (UP-BTK), by competing with a fluorescent labeled tracer. […] Data were analyzed using Xlfit™ version 5.3 from ID Business Solutions (Guildford), Microsoft Excel add-in. pIC50 refers to the negative log of the IC50 in molar.

Chain of unphosphorylated-BTK kinase domain (UP-BTK), GST-tagged human BTK (389-659aa) (Q06187 389-659): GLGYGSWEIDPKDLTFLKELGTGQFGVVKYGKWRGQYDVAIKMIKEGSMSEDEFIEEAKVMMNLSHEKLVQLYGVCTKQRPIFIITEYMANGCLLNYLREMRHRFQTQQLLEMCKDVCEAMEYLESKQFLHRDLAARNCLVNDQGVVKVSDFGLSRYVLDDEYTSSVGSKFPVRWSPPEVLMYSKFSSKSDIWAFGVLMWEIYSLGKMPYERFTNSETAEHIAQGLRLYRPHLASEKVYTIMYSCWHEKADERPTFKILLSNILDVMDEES

SMILES | BTK_I_binding pIC50
CCC(=O)NC1CCC[C@@H](NC(=O)c2sc3nccc4c3c2NC(=O)N4c2cnc(Oc3ccccc3)cc2C)C1 (single isomer, unassigned) [Example 423, 5-(*S)-(4-Methyl-6-phenoxypyridin-3-yl)-4-oxo-N-((1R,3R)-3-propionamidocyclohexyl)-4,5-dihydro-3H-1-thia-3,5,8-triazaacenaphthylene-2-carboxamide] | 7.75
C=CC(=O)N[C@H]1CCC[C@H]1NC(=O)c1sc2nccc3c2c1NC(=O)N3c1ccc(Oc2cccnn2)cc1C (single isomer, unassigned) [Example 424, N-((1R,2S)-2-Acrylamidocyclopentyl)-5-(*S)-(2-methyl-4-(pyridazin-3-yloxy)phenyl)-4-oxo-4,5-dihydro-3H-1-thia-3,5,8-triazaacenaphthylene-2-carboxamide] | 7.76
C=CC(=O)N[C@H]1CC[C@@H](NC(=O)c2sc3nccc4c3c2NC(=O)N4c2cnc(OC(C)C)cc2C)C1 (single isomer, unassigned) [Example 427, N-((1R,3S)-3-Acrylamidocyclopentyl)-5-(*S)-(6-isopropoxy-4-methylpyridin-3-yl)-4-oxo-4,5-dihydro-3H-1-thia-3,5,8-triazaacenaphthylene-2-carboxamide] | 7.88
C=CC(=O)N[C@@H]1CCCC[C@H]1NC(=O)c1sc2nccc3c2c1NC(=O)N3c1ccc(Oc2ccccc2)cc1C (single isomer, unassigned) [Example 439, N-((1R,2R)-2-Acrylamidocyclohexyl)-5-(*S)-(2-methyl-4-phenoxyphenyl)-4-oxo-4,5-dihydro-3H-1-thia-3,5,8-triazaacenaphthylene-2-carboxamide] | 7.53
Cc1cc(Oc2ccccc2)ccc1N1C(=O)Nc2c(C(=O)N[C@@H]3CCCC[C@H]3NC(=O)CN)sc3nccc1c23 (single isomer, unassigned) [Example 441, N-((1R,2R)-2-(2-Aminoacetamido)cyclohexyl)-5-(*S)-(2-methyl-4-phenoxyphenyl)-4-oxo-4,5-dihydro-3H-1-thia-3,5,8-triazaacenaphthylene-2-carboxamide] | 7.01
CNCC(=O)N[C@@H]1CCCC[C@@H]1NC(=O)c1sc2nccc3c2c1NC(=O)N3c1ccc(Oc2ccccc2)cc1C (single isomer, unassigned) [Example 443, 5-(*S)-(2-Methyl-4-phenoxyphenyl)-N-((1S,2R)-2-(2-(methylamino)acetamido)cyclohexyl)-4-oxo-4,5-dihydro-3H-1-thia-3,5,8-triazaacenaphthylene-2-carboxamide] | 6.74
Cc1cc(Oc2ccccc2)ccc1N1C(=O)Nc2c(C(=O)N[C@H]3CCCC[C@H]3NC(=O)CN)sc3nccc1c23 (single isomer, unassigned) [Example 444, N-((1S,2R)-2-(2-Aminoacetamido)cyclohexyl)-5-(*S)-(2-methyl-4-phenoxyphenyl)-4-oxo-4,5-dihydro-3H-1-thia-3,5,8-triazaacenaphthylene-2-carboxamide] | 6.73
CC(=O)N[C@@H]1CCCC[C@H]1NC(=O)c1sc2nccc3c2c1NC(=O)N3c1ccc(Oc2ccccc2)cc1C (single isomer, unassigned) [Example 445, N-((1R,2R)-2-Acetamidocyclohexyl)-5-(*S)-(2-methyl-4-phenoxyphenyl)-4-oxo-4,5-dihydro-3H-1-thia-3,5,8-triazaacenaphthylene-2-carboxamide] | 6.73
Cc1cc(Oc2ccccc2)ccc1N1C(=O)Nc2c(C(=O)N[C@@H]3CCCC[C@H]3NC(=O)CN(C)C)sc3nccc1c23 (single isomer, unassigned) [Example 447, N-((1R,2R)-2-(2-(Dimethylamino)acetamido)cyclohexyl)-5-(*S)-(2-methyl-4-phenoxyphenyl)-4-oxo-4,5-dihydro-3H-1-thia-3,5,8-triazaacenaphthylene-2-carboxamide] | 6.67

Now from value to compound:

BTK_I_binding pIC50 | SMILES
6.67 | C=CC(=O)N[C@H]1CCC[C@H]1NC(=O)c1sc2nccc3c2c1NC(=O)N3c1ccc(Oc2cccnn2)cc1C (single isomer, unassigned) [Example 425, N-((1R,2S)-2-Acrylamidocyclopentyl)-5-(*R)-(2-methyl-4-(pyridazin-3-yloxy)phenyl)-4-oxo-4,5-dihydro-3H-1-thia-3,5,8-triazaacenaphthylene-2-carboxamide]
8.20 | C=CC(=O)N[C@H]1CCC[C@H]1NC(=O)c1sc2nccc3c2c1NC(=O)N3c1cnc(OC(C)C)cc1C (single isomer, unassigned) [Example 426, N-((1R,2S)-2-Acrylamidocyclopentyl)-5-(*S)-(6-isopropoxy-4-methylpyridin-3-yl)-4-oxo-4,5-dihydro-3H-1-thia-3,5,8-triazaacenaphthylene-2-carboxamide]
6.67 | Cc1cc(OC(C)C)ncc1N1C(=O)Nc2c(C(=O)N[C@@H]3CCC[C@@H]3N)sc3nccc1c23 (single isomer, unassigned) [Example 428, N-((1R,2S)-2-Aminocyclopentyl)-5-(*S)-(6-isopropoxy-4-methylpyridin-3-yl)-4-oxo-4,5-dihydro-3H-1-thia-3,5,8-triazaacenaphthylene-2-carboxamide]
8.17 | C=CC(=O)N[C@@H]1CC[C@H](NC(=O)c2sc3nccc4c3c2NC(=O)N4c2cnc(Oc3ccccc3)cc2C)C1 (single isomer, unassigned) [Example 430, N-((1S,3R)-3-Acrylamidocyclopentyl)-5-(*S)-(4-methyl-6-phenoxypyridin-3-yl)-4-oxo-4,5-dihydro-3H-1-thia-3,5,8-triazaacenaphthylene-2-carboxamide]
6.68 | Cc1cc(Oc2ccccc2)ncc1N1C(=O)Nc2c(C(=O)N[C@H]3CC[C@@H](N)C3)sc3nccc1c23 (single isomer, unassigned) [Example 431, N-((1S,3R)-3-Aminocyclopentyl)-5-(*S)-(4-methyl-6-phenoxypyridin-3-yl)-4-oxo-4,5-dihydro-3H-1-thia-3,5,8-triazaacenaphthylene-2-carboxamide]
7.07 | Cc1cc(Oc2ccccc2)ccc1N1C(=O)Nc2c(C(=O)N[C@@H]3CCCC[C@H]3N)sc3nccc1c23 (single isomer, unassigned) [Example 440, N-((1R,2R)-2-aminocyclohexyl)-5-(*S)-(2-methyl-4-phenoxyphenyl)-4-oxo-4,5-dihydro-3H-1-thia-3,5,8-triazaacenaphthylene-2-carboxamide]
6.72 | CC(=O)N[C@@H]1CCCC[C@@H]1NC(=O)c1sc2nccc3c2c1NC(=O)N3c1ccc(Oc2ccccc2)cc1C (single isomer, unassigned) [Example 446, N-((1S,2R)-2-Acetamidocyclohexyl)-5-(*S)-(2-methyl-4-phenoxyphenyl)-4-oxo-4,5-dihydro-3H-1-thia-3,5,8-triazaacenaphthylene-2-carboxamide]

same assay, conditions: read-out: BTK_I_binding pIC50 (converted)

SMILES | IC50
Cc1cc(OC(C)C)ncc1N1C(=O)Nc2c(C(=O)N[C@@H]3CC[C@H](N)C3)sc3nccc1c23 (single isomer, unassigned) [Example 429, N-((1R,3S)-3-Aminocyclopentyl)-5-(*S)-(6-isopropoxy-4-methylpyridin-3-yl)-4-oxo-4,5-dihydro-3H-1-thia-3,5,8-triazaacenaphthylene-2-carboxamide] | > 1000 nM

Source: US10934310B2, “Inhibitors of Bruton's tyrosine kinase and method of their use” (JANSSEN PHARMACEUTICA NV, priority 2015, dated 2021)
